Where no end group is shown, it is not given here.
Assays:
purified binding protein = assay: competition for binding of labelled human/bovine/porcine IGF-1 to purified binding protein; details: competition with labelled human/bovine/porcine IGF-1
Description: This apparent discrepancy is caused by the myoblasts producing a binding protein in addition to the receptor. This binding protein selectively binds those IGF-1 peptides that have a glutamic acid residue at position 3 from the N-terminal, thus preventing the peptide binding to the cell receptor. This interpretation is established by the following results [determined by the method of Martin and Baxter, J. Biol, Chem. 261: 8754-8760, (1986)] with purified binding proteins (see Table 2).

L6 myoblasts = assay: incorporation of 3H-labelled leucine into total cell protein of L6 myoblasts (protein synthesis bioassay); assay type: cell-based; details: for Concentration (percent of that required to give a half-response with hIGF-1): hIGF-1 half-response 12 ng/ml = 100, lower = more potent
Description: Bioassays of purified synthetic peptides have been compared with pure human/bovine/porcine IGF-1. The assays involve the incorporation of 3H-labelled leucine into the total cell protein of L6 myoblasts as described by Francis et al. (Biochem. J. 233:207-213, 1986).

Row | Substance | Potency for binding to the protein where hIGF-1 = 100% (purified binding protein) | Concentration (percent of that required to give a half-response with hIGF-1) (L6 myoblasts) | concentration required to give a half-response (L6 myoblasts; 3H-leucine incorporation)
1 | Gly--Thr--Leu--Cys--: IGF-1 analogue: Gly, Pro removed and glutamic acid substituted with glycine (GTLC; not fully specified (C-terminus); printed as Gly—Thr—Leu—Cys—; ends and bridges not checked; also: N-terminal part of IGF-1 analogue, rest of chain not shown) | 1.0% | 16% | 
2 | Gly--Pro--Gly--Gly--Leu--Cys--: IGF-1 analogue: glutamic acid 3 substituted with glycine and threonine 4 with glycine (GPGGLC; not fully specified (C-terminus); printed as Gly—Pro—Gly—Gly—Leu—Cys—; ends and bridges not checked; also: N-terminal part of IGF-1 analogue, rest of chain not shown) | 0.1% | 14% | 
3 | Gly--Pro--Gly--Arg--Leu--Cys--: IGF-1 analogue: glutamic acid 3 substituted with glycine and threonine 4 with arginine (GPGRLC; not fully specified (C-terminus); printed as Gly—Pro—Gly—Arg—Leu—Cys—; ends and bridges not checked; also: N-terminal part of IGF-1 analogue, rest of chain not shown) | < 0.1% | 4% | 
4 | Gly--Pro--Leu--Thr--Leu--Cys--: IGF-1 analogue: glutamic acid at position 3 substituted with leucine (GPLTLC; not fully specified (C-terminus); printed as Gly—Pro—Leu—Thr—Leu—Cys—; ends and bridges not checked; also: N-terminal part of IGF-1 analogue, rest of chain not shown) | 0.5% | 18% | 
5 | Gly--Pro--Lys--Thr--Leu--Cys--: IGF-1 analogue: glutamic acid at position 3 substituted with lysine (GPKTLC; not fully specified (C-terminus); printed as Gly—Pro—Lys—Thr—Leu—Cys—; ends and bridges not checked; also: N-terminal part of IGF-1 analogue, rest of chain not shown) | 0.1% | 11% | 
6 | Gly--Pro--Arg--Thr--Leu--Cys--: IGF-1 analogue: glutamic acid at position 3 substituted with arginine (GPRTLC; not fully specified (C-terminus); printed as Gly—Pro—Arg—Thr—Leu—Cys—; ends and bridges not checked; also: N-terminal part of IGF-1 analogue, rest of chain not shown) | < 0.1% | 5% | 
7 | Gly--Pro--Gly--Thr--Leu--Cys--: IGF-1 analogue: glutamic acid at position 3 substituted with glycine (GPGTLC; not fully specified (C-terminus); printed as Gly—Pro—Gly—Thr—Leu—Cys—; ends and bridges not checked; also: N-terminal part of IGF-1 analogue, rest of chain not shown) | 0.5% | 12% | 
8 | Gly--Pro--Glu--Thr--Leu--Cys--: pure human/bovine/porcine insulin-like growth factor-1, full 70-residue sequence (b3) (GPETLC; not fully specified (C-terminus); ends and bridges not checked; also: N-terminal part of IGF-1, rest of chain not shown) [reference compound] | 100% | 100% | 12 ng/mL
9 | Gly--Pro--Gln--Thr--Leu--Cys--: IGF-1 analogue: glutamic acid at position 3 substituted with glutamine (GPQTLC; not fully specified (C-terminus); printed as Gly—Pro—Gln—Thr—Leu—Cys—; ends and bridges not checked; also: N-terminal part of IGF-1 analogue, rest of chain not shown) | 1.0% | 18% | 
